Test results: patent US3998818A, “Trifluoroethylmercapto, -sulfinyl or -sulfonyl acetamidocephalosporins” (SmithKline Corporation, priority 1975, dated 1976)
In brackets after ≈: the same amount, converted by molar mass.

How the values were obtained:
Type in all cases: cell-based
Shigella paradysentiae = assay: MIC by standard agar inclusion method (Shigella paradysentiae)
Kleb. pneumo. SK 4200 = assay: MIC by standard agar inclusion method (Kleb. pneumo. SK 4200)
Pseudo. aeruginosa HH63 = assay: MIC by standard agar inclusion method (Pseudo. aeruginosa HH63); settings: Pseudomonas aeruginosa
Kleb. pneumo. SK 1200 = assay: MIC by standard agar inclusion method (Kleb. pneumo. SK 1200)
[1] = test system: Entero. aerogenes ATCC 13048; assay: MIC by standard agar inclusion method (Entero. aerogenes ATCC 13048); settings: Klebsiella aerogenes, ATCC13048
S. aureus HH 127 = assay: MIC by standard agar inclusion method (S. aureus HH 127); settings: Staphylococcus aureus, HH127
S. aureus SK 23390 = assay: MIC by standard agar inclusion method (S. aureus SK 23390); settings: Staphylococcus aureus, SK23390
E. coli SK 12140 = assay: MIC by standard agar inclusion method (E. coli SK 12140); settings: Escherichia coli, SK12140
S. aureus Villaluz = assay: MIC by standard agar inclusion method (S. aureus Villaluz); settings: Staphylococcus aureus
Salmonella ATCC 12176 = assay: MIC by standard agar inclusion method (Salmonella ATCC 12176); settings: ATCC12176
[2] = test system: Serratia marc. ATCC 13880; assay: MIC by standard agar inclusion method (Serratia marc. ATCC 13880); settings: ATCC13880
E. coli HH 33779 = assay: MIC by standard agar inclusion method (E. coli HH 33779); settings: Escherichia coli, HH33779
Strep. faecalis HH 34358 = assay: MIC by standard agar inclusion method (Strep. faecalis HH 34358); settings: Enterococcus faecalis, HH34358

With CC(=O)OCC1=C(C(=O)O)N2C(=O)C(NC(=O)CSCC(F)(F)F)C2SC1 (centres unmarked) [Compound 1, 7-Trifluoroethylmercaptoacetamidocephalosporanic acid] the MIC (Shigella paradysentiae) was 6.3 µg/mL (≈ 14.7 µM), the MIC (Kleb. pneumo. SK 4200) was 6.3 µg/mL (≈ 14.7 µM) and the MIC (Pseudo. aeruginosa HH63) was > 200 µg/mL. The MIC (Kleb. pneumo. SK 1200) was 3.1 µg/mL (≈ 7.24 µM), the MIC [1] was 50 µg/mL (≈ 117 µM) and the MIC (S. aureus HH 127) was 0.4 µg/mL (≈ 0.934 µM). For the same compound, the MIC (S. aureus SK 23390) was 0.4 µg/mL (≈ 0.934 µM), the MIC (E. coli SK 12140) was 6.3 µg/mL (≈ 14.7 µM) and the MIC (S. aureus Villaluz) was 25 µg/mL (≈ 58.4 µM). For the same compound, the MIC (Salmonella ATCC 12176) was 6.3 µg/mL (≈ 14.7 µM), the MIC [2] was > 200 µg/mL and the MIC (E. coli HH 33779) was 50 µg/mL (≈ 117 µM). It also gave an MIC (Strep. faecalis HH 34358) of 25 µg/mL (≈ 58.4 µM).
With Cc1nnc(SCC2=C(C(=O)O)N3C(=O)C(NC(=O)CSCC(F)(F)F)[C@H]3SC2)s1 (some centres unmarked) [Compound 2, 7-Trifluoroethylmercaptoacetamido-3-(5-methyl-1,3,4-thiadiazol-2-ylthiomethyl)-3-cephem-4-carboxylic acid] the MIC (Shigella paradysentiae) was 1.6 µg/mL (≈ 3.2 µM), the MIC (Kleb. pneumo. SK 4200) was 6.3 µg/mL (≈ 12.6 µM) and the MIC (Pseudo. aeruginosa HH63) was > 200 µg/mL. It also gave an MIC (Kleb. pneumo. SK 1200) of 3.1 µg/mL (≈ 6.19 µM), an MIC [1] of 25 µg/mL (≈ 49.9 µM) and an MIC (S. aureus HH 127) of 0.2 µg/mL (≈ 0.4 µM). For the same compound, the MIC (S. aureus SK 23390) was 0.1 µg/mL (≈ 0.2 µM), the MIC (E. coli SK 12140) was 6.3 µg/mL (≈ 12.6 µM) and the MIC (S. aureus Villaluz) was 25 µg/mL (≈ 49.9 µM). For the same compound, the MIC (Salmonella ATCC 12176) was 6.3 µg/mL (≈ 12.6 µM), the MIC [2] was > 200 µg/mL and the MIC (E. coli HH 33779) was 12.5 µg/mL (≈ 25 µM). It also gave an MIC (Strep. faecalis HH 34358) of 6.3 µg/mL (≈ 12.6 µM).
In the case of Cn1nnnc1SCC1=C(C(=O)O)N2C(=O)C(NC(=O)CSCC(F)(F)F)[C@H]2SC1 (some centres unmarked) [Compound 3, 7-Trifluoroethylmercaptoacetamido-3-(1-methyltetrazol-5-ylthiomethyl)-3-cephem-4-carboxylic acid], the MIC (Shigella paradysentiae) was 0.4 µg/mL (≈ 0.826 µM), the MIC (Kleb. pneumo. SK 4200) was 3.1 µg/mL (≈ 6.4 µM) and the MIC (Pseudo. aeruginosa HH63) was > 200 µg/mL. The MIC (Kleb. pneumo. SK 1200) was 1.6 µg/mL (≈ 3.3 µM), the MIC [1] was 6.3 µg/mL (≈ 13 µM) and the MIC (S. aureus HH 127) was 0.2 µg/mL (≈ 0.413 µM). The MIC (S. aureus SK 23390) was 0.1 µg/mL (≈ 0.206 µM), the MIC (E. coli SK 12140) was 1.6 µg/mL (≈ 3.3 µM) and the MIC (S. aureus Villaluz) was 12.5 µg/mL (≈ 25.8 µM). The MIC (Salmonella ATCC 12176) was 0.8 µg/mL (≈ 1.65 µM), the MIC [2] was > 200 µg/mL and the MIC (E. coli HH 33779) was 6.3 µg/mL (≈ 13 µM). For the same compound, the MIC (Strep. faecalis HH 34358) was 12.5 µg/mL (≈ 25.8 µM).
With Cn1nnnc1SCC1=C(C(=O)O)N2C(=O)C(NC(=O)C[S+]([O-])CC(F)(F)F)[C@H]2SC1 (some centres unmarked) [Compound 4, 7-Trifluoroethylsulfinylacetamido-3-(1-methyltetrazol-5-ylthiomethyl)-3-cephem-4-carboxylic acid] the MIC (Shigella paradysentiae) was 0.4 µg/mL (≈ 0.799 µM), the MIC (Kleb. pneumo. SK 4200) was 0.8 µg/mL (≈ 1.6 µM) and the MIC (Pseudo. aeruginosa HH63) was > 200 µg/mL. The MIC (Kleb. pneumo. SK 1200) was 0.4 µg/mL (≈ 0.799 µM), the MIC [1] was 6.3 µg/mL (≈ 12.6 µM) and the MIC (S. aureus HH 127) was 1.6 µg/mL (≈ 3.2 µM). For the same compound, the MIC (S. aureus SK 23390) was 0.8 µg/mL (≈ 1.6 µM), the MIC (E. coli SK 12140) was 0.8 µg/mL (≈ 1.6 µM) and the MIC (S. aureus Villaluz) was 100 µg/mL (≈ 200 µM). For the same compound, the MIC (Salmonella ATCC 12176) was 1.6 µg/mL (≈ 3.2 µM), the MIC [2] was > 200 µg/mL and the MIC (E. coli HH 33779) was 3.1 µg/mL (≈ 6.19 µM). It also gave an MIC (Strep. faecalis HH 34358) of 100 µg/mL (≈ 200 µM).
For Cn1nnnc1SCC1=C(C(=O)O)N2C(=O)C(NC(=O)CS(=O)(=O)CC(F)(F)F)[C@H]2SC1 (some centres unmarked) [Compound 5, 7-Trifluoroethylsulfonylacetamido-3-(1-methyltetrazol-5-ylthiomethyl)-3-cephem-4-carboxylic acid], the MIC (Shigella paradysentiae) was 6.3 µg/mL (≈ 12.2 µM), the MIC (Kleb. pneumo. SK 4200) was 3.1 µg/mL (≈ 6 µM) and the MIC (Pseudo. aeruginosa HH63) was > 200 µg/mL. For the same compound, the MIC (Kleb. pneumo. SK 1200) was 3.1 µg/mL (≈ 6 µM), the MIC [1] was 50 µg/mL (≈ 96.8 µM) and the MIC (S. aureus HH 127) was 3.1 µg/mL (≈ 6 µM). For the same compound, the MIC (S. aureus SK 23390) was 3.1 µg/mL (≈ 6 µM), the MIC (E. coli SK 12140) was 6.3 µg/mL (≈ 12.2 µM) and the MIC (S. aureus Villaluz) was 200 µg/mL (≈ 387 µM). For the same compound, the MIC (Salmonella ATCC 12176) was 6.3 µg/mL (≈ 12.2 µM), the MIC [2] was > 200 µg/mL and the MIC (E. coli HH 33779) was 12.5 µg/mL (≈ 24.2 µM). For the same compound, the MIC (Strep. faecalis HH 34358) was > 200 µg/mL.
